Data from PMC4851402, “Validation of N-myristoyltransferase as Potential Chemotherapeutic Target in Mammal-Dwelling Stages of Trypanosoma cruzi” (PLoS Neglected Tropical Diseases, 2016).
“Also recorded” adds a separate entry of the source. Read-outs that look alike come from different tables or passages of the source.

Tests used:
[1] = tested on: Purified ICAs of T. cruzi; assay: microbe, parasite or virus in culture; type: cell-based, Trypanosoma cruzi (Y strain); conditions: for EC50: read-out: Purified ICAs EC50
Protocol: Intracellular amastigote (ICA) forms were purified as described. Briefly, 5 x 10^6 LLC-MK2 cells were seeded in a 150-cm^2 tissue culture flask (NUNC, Thermo Scientific) and cells were grown for 3–4 days to reach confluency of ~2 x 10^7 cells per flask. The medium was then replaced with fresh complete medium and host cells were infected with 1 x 10^8 TCT (multiplicity of infection (MOI) ≈ 5). After 5 days, the infected monolayers were gently detached by scraping and resuspended in 5 mL phosphate-buffered saline (PBS). The suspension containing the infected cells was next transferred to an M-tube (Miltenyi Biotec Inc., San Diego, CA). This tube bears a special stator and rotor that allows for tissue homogenization. In addition, it has a pre-inserted mesh that retains larger particles, removing them from the homogenized sample. The tube was then placed in the gentleMACS Dissociator (Miltenyi Biotec) for the automated disruption of host cells. The homogenized sample containing the parasites was then passed through a column containing anion exchange preswollen microgranular diethylaminoethyl cellulose (DE52, Whatman, Sigma-Aldrich).
(§1) DMSO control wells contained 30 μL 6% DMSO, whereas wells for the negative control contained 1% hydrogen peroxide in DMEM. U2OS cells were resuspended in DMEM, 10% HI-FBS, to give a cell density of 2 x 10^5 cells/mL, while ICA forms were resuspended in DMEM, 10% HI-FBS, to a final density of 1 x 10^7 per well. Epi forms were resuspended in LIT medium to a density of 1 x 10^6 parasites per well. Hundred and fifty microliters of the suspension containing either host cells or parasites were added per well. Following 47- and 23-h incubation at 37°C for mammalian cells and ICA, respectively, a mixture of propidium iodide (Invitrogen) and Hoechst dye (Invitrogen) diluted in culture media (1 μg/mL each) was added to the plates, which were then further incubated for 1 h at 37°C. […] In the case of Epi, after 68-h incubation at 28°C, 18 μL Alamar Blue (AbD Serotec, Raleigh, NC) were added per well. Following an additional 4-h incubation, the plate was read in a microplate fluorometer (Thermo Scientific) at excitation 560 nm, emission 590 nm. Three independent experiments were performed in triplicate wells.
(§2) EC50 were determined from three independent experiments.

[2] = tested on: T. cruzi epimastigotes (Epi); assay: Cytotoxicity assay on epimastigotes (Alamar Blue); type: cell-based, Trypanosoma cruzi (Y strain); conditions: after 72 h; for EC50: Trypanosoma cruzi, read-out: Epi forms EC50
Protocol: DDD compounds 1–8 and the reference drug BZ were prepared 6-fold-concentrated in 6% DMSO, to give a final concentration of 1x compound in 1% DMSO. […] DMSO control wells contained 30 μL 6% DMSO, whereas wells for the negative control contained 1% hydrogen peroxide in DMEM. U2OS cells were resuspended in DMEM, 10% HI-FBS, to give a cell density of 2 x 10^5 cells/mL, while ICA forms were resuspended in DMEM, 10% HI-FBS, to a final density of 1 x 10^7 per well. Epi forms were resuspended in LIT medium to a density of 1 x 10^6 parasites per well. Hundred and fifty microliters of the suspension containing either host cells or parasites were added per well. Following 47- and 23-h incubation at 37°C for mammalian cells and ICA, respectively, a mixture of propidium iodide (Invitrogen) and Hoechst dye (Invitrogen) diluted in culture media (1 μg/mL each) was added to the plates, which were then further incubated for 1 h at 37°C. Finally, plates were read in the BD Pathway 855 bioimager system. In the case of Epi, after 68-h incubation at 28°C, 18 μL Alamar Blue (AbD Serotec, Raleigh, NC) were added per well. Following an additional 4-h incubation, the plate was read in a microplate fluorometer (Thermo Scientific) at excitation 560 nm, emission 590 nm. Three independent experiments were performed in triplicate wells. […] EC50 were determined from three independent experiments.

[3] = tested on: T. cruzi intracellular amastigote proliferation; assay: In vitro T. cruzi intracellular proliferation assay in infected U2OS cells, high-content imaging; type: cell-based, Trypanosoma cruzi (Y strain); conditions: read-out: T. cruzi proliferation assay EC50
Protocol: DMSO control wells contained 30 μL 6% DMSO. Human […] (U2OS cells) were diluted in DMEM, 10% heat inactivated-fetal bovine serum (HI-FBS) to give a cell density of 2 x 10^5 cells/mL. T. cruzi trypomastigotes were resuspended in DMEM, 10% HI-FBS to a final density of 1.2 x 10^7. Cells and parasites were mixed a ratio of 4 volumes of cells plus 1 volume of parasites. 150 μL of the mixture were dispensed per well. Plates were incubated for 48 h. After the incubation period, media was removed from the wells and 100 μL 4% paraformaldehyde (PFA) were added. After 15 min of incubation at room temperature, PFA was removed and cells and parasites were stained with Draq5 (BioStatus, Leicestershire, UK) at a concentration of 5 μM diluted in PBS. The plates were then read in a bioimager system as described below. Three independent experiments were performed in triplicate wells.
Filter sets appropriate for the excitation and emission spectra of Draq5 were utilized. Images from four fields (2 x 2 montage) were acquired per well with a 20x objective. To perform the host cell segmentation and counting of parasites, the BD AttoVision v1.6.2 Sub Object analysis was used. Draq5 creates a background, staining the host cell and parasite nucleus, but defining the cytoplasm as well, determining this way the amount of parasites within each mammalian cell. The host cell nucleus was excluded by size difference. Raw data was imported into the BD Image Data Explorer (BD Biosciences) to determine the percentage of infected cells containing at least 1, at least 3 or at least 5 intracellular parasites.
as §2

[4] = tested on: Epi, ICA and TCT forms of T. cruzi; assay: [35S]-Methionine labeling (protein translation); type: cell-based, Trypanosoma cruzi; conditions: 10 μM, 12 h
Protocol: Parasites were incubated with or without 10 μM of the inhibitors as described above. After 10 h, cells were starved in methionine deficient media for 1 h. Next, 20 μCi.mL^-1 [^35S]-methionine (Perkin Elmer) were added to the samples for 1 h incubation, for a 12-h treatment with the inhibitors. Next, the parasites were washed three times with PBS and lysed in 1% SDS, Tris-HCl, pH 8.0. Samples were ran in 4–12% gels (Expedeon, San Diego, CA) and transferred to polyvinylidene fluoride (PVDF) membranes (Sigma-Aldrich). Membranes were dried and exposed to Hyperfilm ECL (Amersham, GE Healthcare Lifesciences, Piscataway, NJ). To determine total protein levels, membranes were stained with Ponceau S after exposure.

TcNMT [5] = assay: Metabolic labeling with myristic acid, azide and in-gel western blotting (on-target); type: cell-based, Trypanosoma cruzi; conditions: 10 μM, 12 h, Epi, ICA and TCT
Protocol: Parasites were incubated with or without 10 μM of the inhibitor 1, 5, or 8 in 1 mL 2% delipidated BSA-DMEM at 37°C for ICA and TCT and at 28°C for Epi. After 6 h, 100 μM myristic acid, azide (from a 50-mM stock in DMSO) were added to the samples, and the same volume of DMSO was added to the negative control. Cells were incubated for another 6 h, for a 12-h treatment with the inhibitors. Next, the parasites were washed three times with PBS and lysed in 1% SDS, Tris-HCl, pH 8.0. “Click” reaction was performed between the myristic acid azide and Biotin Alkyne (Invitrogen) according to the manufacturer instructions using the Click-iT Protein Reaction Buffer Kit (Invitrogen). Duplicate aliquots of lysates were ran in 10% SDS-PAGE followed by fixing (5% acetic acid, 50% isopropanol) for 15 min. Gels were then analyzed by in-gel western blotting using IRDye streptavidin (LI-COR Biosciences, Lincoln, NE) 1:7500 in 5% BSA, 0.05% SDS, 0.2% Tween in PBS, for 1 h at room temperature. They were subsequently treated or not with 0.2 M NaOH in methanol for 1 h at room temperature. Gels were scanned in an ODYSSEY quantitative imagining system (LI-COR Biosciences). They were next stained with Coomassie blue and scanned again to determine total protein levels.

U2OS cells = assay: Cytotoxicity (viability) assay on non-infected U2OS cells, high-content imaging; type: cell-based, human; conditions: for EC50: Homo sapiens, read-out: U2OS cells EC50; for Toxicity on U2OS cells: after 48 h of treatment
Protocol: as §1, §2

TcNMT [6] = assay: Western blotting of TcNMT expression in treated parasites; type: cell-based, Trypanosoma cruzi; conditions: 10 μM, 12 h
Protocol: Parasites (1 x 10^7 cells) were incubated with or without 10 μM of the inhibitor (compound 1, 5, or 8) in 1 mL 10% HI-FBS, DMEM at 37°C for ICA and TCT, and at 28°C for Epi for 12 h. Next, parasites were washed three times with PBS and lysed in 1% SDS, Tris-HCl, pH 8.0. Samples were run in 10% SDS-PAGE followed by western blot probed with anti-TcNMT at dilution 1:1000 in 5% milk-PBS overnight. This was followed by incubation with anti-rabbit IgG-HRP conjugated. The membrane was next stripped with boiling stripping buffer (3% SDS, 0.3% β-mercaptoethanol) for 10 min, followed by 4 washes with 0.1% PBS-T. It was then blot again with anti-BiP at dilution 1:500 in 5% milk-PBS overnight, at 4°C, followed by anti-rabbit IgG HRP-conjugated.

T. brucei = tested on: T. brucei; parameters: method as in PMID 20360736; conditions: T. brucei bloodstream forms; cited from earlier work
[7] = Trypanosoma cruzi, 24 h, purified ICAs, 24 h at 37°C
[8] = Trypanosoma cruzi, U2OS, 48 h, infected U2OS cells, 48 h at 37°C
[9] = non-infected U2OS cells, 48 h at 37°C

Row | SMILES | EC50 [1, 7] | EC50 [3, 8] | Incorporation of [35S]-methionine into proteins [4] | Protein N-myristoylation bands (myristic acid azide labeling) (TcNMT [5]) | EC50 (U2OS cells; [9]) | Toxicity on U2OS cells (U2OS cells) | TcNMT expression in Epi (TcNMT [6]) | also measured
1 | Cc1c(NS(=O)(=O)c2c(Cl)cc(-c3ccnc(N4CCNCC4)c3)cc2Cl)c(CC(C)C)nn1C [Compound 1] | 1830 nM | 180 nM | no effect | decreased intensity or complete loss of most of the bands | 12800 nM | toxicity only at 50 μM | overexpression of TcNMT | EC50 ([1]; purified ICAs, 24 h at 37°C): 1800 nM; Effect on Epi parasite viability [2]: did not have a significant effect
2 | Cc1nn(C)c(Cl)c1NS(=O)(=O)c1c(Cl)cc(-c2ccnc(N3CCNCC3)c2)cc1Cl [Compound 2] | > 50000 nM | 1140 nM | – | – | > 50000 nM | – | – | Trypanocidal activity against purified ICA forms ([1]; purified ICA): no significant trypanocidal activity; also recorded: not trypanocidal; EC50 ([3]; infected U2OS cells, 48 h at 37°C): 1100 nM; Efficacy in mouse model of human African trypanosomiasis (T. brucei): curative
3 | Cc1nn(C)c(C)c1NS(=O)(=O)c1c(Cl)cc(CCCN2CCN(C)CC2)cc1Cl [Compound 3] | – | – | – | – | – | – | – | EC50 ([1]; Trypanosoma cruzi, 24 h): > 50000 nM; EC50 ([3]; Trypanosoma cruzi, U2OS, 48 h): 10300 nM; EC50 (U2OS cells; U2OS, 48 h): > 50000 nM
4 | Cc1c(NS(=O)(=O)c2ccc(CCCC3CCN(C)CC3)cc2)c(CC(C)C)nn1C [Compound 4] | > 50000 nM | 540 nM | – | – | > 50000 nM | – | – | –
5 | Cc1nn(C)c(C)c1N(C(F)F)S(=O)(=O)c1c(Cl)cc(CCCC2CCN(C)CC2)cc1Cl [Compound 5] | 60 nM | 260 nM | no effect | decreased intensity or complete loss of most of the bands | 11400 nM | toxicity only at 50 μM | overexpression of TcNMT | EC50 [2]: 9700 nM
6 | Cc1c(NS(=O)(=O)c2ccc(-c3cccc(CN(C)C)c3)cc2)c(CC(C)C)nn1C [Compound 6] | > 50000 nM | 990 nM | – | – | > 50000 nM | – | – | –
7 | Cc1nn(C)c(C)c1N(CC(F)(F)F)S(=O)(=O)c1c(Cl)cc(CCCC2CCN(C)CC2)cc1Cl [Compound 7] | 11100 nM | 1010 nM | – | – | 13900 nM | – | – | –
8 | Cc1nn(C)c(C)c1N(C(F)F)S(=O)(=O)c1c(Cl)cc(CCCCC2CCN(C)CC2)cc1Cl [Compound 8] | 20 nM | 350 nM | no effect | decreased intensity or complete loss of most of the bands | 11900 nM | toxicity only at 50 μM | overexpression of TcNMT | EC50 [2]: 2100 nM
